In one data set the target is T1, human CCK2R (Homo sapiens, UniProt P32239).
T1 construct: expressed in transfected cells; host or cells: A431 human epidermoid carcinoma cells, stably transfected (plasmid pCR3.1); provided by Dr. Luigi Aloj
T1 sequence (P32239 1-447): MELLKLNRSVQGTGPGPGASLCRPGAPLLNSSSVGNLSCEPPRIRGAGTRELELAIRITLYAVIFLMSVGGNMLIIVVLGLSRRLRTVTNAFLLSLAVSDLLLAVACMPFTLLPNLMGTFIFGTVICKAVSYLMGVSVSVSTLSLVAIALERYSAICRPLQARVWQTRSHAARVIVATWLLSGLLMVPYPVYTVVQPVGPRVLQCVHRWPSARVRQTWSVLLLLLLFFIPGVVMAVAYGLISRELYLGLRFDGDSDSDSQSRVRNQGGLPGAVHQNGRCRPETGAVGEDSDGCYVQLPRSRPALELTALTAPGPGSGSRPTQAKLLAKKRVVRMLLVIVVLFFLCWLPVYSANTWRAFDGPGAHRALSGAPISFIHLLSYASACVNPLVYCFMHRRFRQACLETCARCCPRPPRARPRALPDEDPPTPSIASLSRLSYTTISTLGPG
The experiment in a line: Competition assay against [125I][3-iodo-Tyr12,Leu15]gastrin-I on A431-CCK2R cells. As to conditions: non-labeled peptide, displacement of [125I][3-iodo-Tyr12,Leu15]gastrin-I, 1 h RT. The class given is binding. The procedure: [^125I][3-iodo-Tyr^12,Leu^15]gastrin-I at high molar activity was obtained by HPLC purification and stored in aliquots at −25 °C. Binding assays were carried out using 96-well filter plates (MultiScreenHTS-FB, Merck Group, Darmstadt, Germany) pre-treated with 10 mM TRIS/139 mM NaCl pH 7.4 (2 × 250 µL). For the assay, 200,000–400,000 A431-CCK2R cells per well were prepared in 20 mM HEPES buffer pH 7.4 containing 10 mM MgCl2, 14 µM bacitracin and 0.5% BSA. The cells (n = 3) were incubated with increasing concentrations of the peptide conjugates (0.0003–30,000 nM) and [^125I][3-iodo-Tyr^12,Leu^15]gastrin-I (50,000 cpm) for 1 h at RT. Incubation was interrupted by filtration of the medium and rapid rinsing with ice-cold 10 mM TRIS/139 mM NaCl pH 7.4 (2 × 200 µL) and the filters were measured in the gamma-counter. Half maximal inhibitory concentration (IC50) values were calculated following nonlinear regression with Origin software (Microcal Origin 6.1, Northampton, MA, USA).

The nature of data set [1]: Protein binding in human serum by size exclusion chromatography. The class given is in vitro ADME. To be noted: 24 h incubation. The procedure:
For protein binding assessment, the radiolabeled DOTA-peptides were incubated in fresh human serum at 37 °C (500 pmol/mL, n = 2). After 1, 4 and 24 h of incubation, two samples were taken for each time point and analyzed by Sephadex G-50 size-exclusion chromatography (GE Healthcare Illustra, Little Chalfont, UK). The percentage of protein binding was determined by measuring the column and the eluate with the gamma-counter.

Data set [2] can be described thus: Metabolic stability in vivo and radiometabolites (radio-HPLC of blood, urine, liver, kidney). The arrangement: species or system BALB/c mice. The procedure: Metabolic biodistribution studies were performed in accordance with the ethical standards of the institution and approved by the Austrian Ministry of Science (BMWFW-66.011/0072-V/3b/2019). These studies were carried out in 5- to 7-week-old female BALB/c mice (n = 3) injected with [^177Lu]Lu-1 via a lateral tail vein. To allow monitoring of the metabolites by radio-HPLC, mice were injected with 30 MBq corresponding to 0.8 nmol total peptide. The mice were euthanized by cervical dislocation after different time points of 10 min, 30 min and 1 h p.i. and the urine and a venous blood sample were collected at the time of sacrifice. Liver and kidneys were dissected and homogenized in 20 mM HEPES buffer pH 7.3 at a ratio of 1:1 (v/v) with an Ultra-Turrax T8 homogenizer (IKA-Werke, Staufen, Germany) for 1 min at RT. Before radio-HPLC analysis, the samples (except urine) were treated with ACN at a ratio of 1:1 (v/v) to precipitate proteins, centrifuged at 2000× g for 2 min and diluted with water at a ratio of 1:1 (v/v). For HPLC analysis of the samples, the analytical HPLC system described above with a flow rate of 1 mL/min was used together with the following optimized water/ACN/0.1% TFA gradient to allow a better separation of [^177Lu]Lu-1 and the different radiometabolites: 0–7 min 1–7% ACN, 7–8 min 7–10% ACN, 8–18 min 10–18% ACN, 18–20 min 18–32% ACN, 20–27 min 32% ACN, 27–37 min […], 37–40 min 80% ACN, 40–40.1 min 80–1% ACN, 40.1–45 min 1% ACN. Urine was measured with the low-sensitivity loop of the radiodetector. The remaining samples were analyzed with the high-sensitivity loop due to the lower radioactivity present in blood, liver and kidney homogenate. To quantify the percentage of intact [^177Lu]Lu-1 and [^177Lu]Lu-M1 showing some overlap in the radiochromatogram when using the high-sensitivity loop of the radiodetector, the two radiopeptides were co-injected at different known ratios to enable a more accurate separation and integration of the two peaks (see supporting Figure S4). Mice from the metabolic biodistribution studies were subjected to a further dissection of all remaining tissues (blood, lung, heart, femur, spleen, muscle, intestine, pancreas and stomach). All organs, also including liver and kidneys, were weighed, and their radioactivity was measured in the gamma counter together with a standard and the residual body. To quantify the uptake of radioactivity in liver and kidneys, a part of liver and kidney homogenate was measured in the gamma counter to extrapolate the radioactivity for the whole organ.

Data set [3] is described as follows: Stability in fresh human serum (radio-HPLC). The class given is in vitro ADME. As to conditions: 24 h incubation, 37 °C. How it is done:
In vitro stability studies for the characterization of the metabolic stability of the radiolabeled peptide analogs in human serum were carried out with [^177Lu]Lu-1, [^177Lu]Lu-M1, [^177Lu]Lu-M2, [^177Lu]Lu-M3 and [^177Lu]Lu-M4 (n = 2). Additional stability studies in rat liver and kidney homogenates were performed for [^177Lu]Lu-1 (n = 2). Tissue homogenates were prepared from dissected organs by homogenization for 1 min at RT (IKA-Werke, Staufen, Germany) in 20 mM HEPES buffer pH 7.3 (30% v/v). The radioligands were incubated in the different media at a concentration of 500 pmol/mL (corresponding to an activity of 6–11 MBq). After incubation at 37 °C at different time points for up to 24 h, a 100 µl sample was taken in duplicates and analyzed by HPLC. Samples obtained from human serum and rat homogenates were treated with ACN at a ratio of 1:1.5 (v/v) to precipitate proteins, centrifuged (14,000 rpm, 2 min, centrifuge 5424, Eppendorf AG, Germany) and diluted with water at a ratio of 1:1 (v/v). A 100 µl aliquot of this solution was injected into the radio HPLC system. The degradation of the radioligand was evaluated based on the radiochemical purity after radiolabeling and the percentage of intact radiopeptide observed during incubation in the different media.

Data set [4] in a line: Distribution coefficient (logD) in octanol/PBS. The class given is physicochemical. The procedure:
The mixture was vigorously vortexed at room temperature over a period of 15 min using a small shaker (MS3 Basic, IKA, Staufen, Germany) with speed of 1500 rpm.

SMILES strings stand for the structures. Like-named read-outs stand apart in the source and are kept apart here. Where a SMILES comes first, the peptide text is derived from it. [ ]: non-standard residue; d: D form. The star is where a group is joined. DOTA = O=C(O)CN1CCN(CC(=O)O)CCN(CC(=O)*)CCN(CC(=O)O)CC1; 1Nal = N[C@@H](Cc1cccc2ccccc12)C(=O)O; NMeNle = CCCC[C@H](NC)C(=O)O Bounds are passed on as bounds.

Turning to `CCCC[C@@H](C(=O)N[C@@H](CC(=O)O)C(=O)N[C@@H](Cc1cccc2ccccc12)C(=O)O)N(C)C(=O)[C@H](Cc1c[nH]c2ccccc12)NC(=O)CNC(=O)[C@H](Cc1ccc(O)cc1)NC(=O)[C@@H]1CCCN1C(=O)[C@@H](CCC(=O)O)NC(=O)CN1CCN(CC(=O)O)CCN(CC(=O)O)CCN(CC(=O)O)CC1` [M1, DOTA-DGlu-Pro-Tyr-Gly-Trp-(N-Me)Nle-Asp-1Nal-COOH] ({DOTA}-[dE]PYGW[NMeNle]D[1Nal]-OH), the IC50 on human CCK2R was over 1000 nM.

Take `CCCC[C@@H](C(=O)N[C@@H](CC(=O)O)C(=O)O)N(C)C(=O)[C@H](Cc1c[nH]c2ccccc12)NC(=O)CNC(=O)[C@H](Cc1ccc(O)cc1)NC(=O)[C@@H]1CCCN1C(=O)[C@@H](CCC(=O)O)NC(=O)CN1CCN(CC(=O)O)CCN(CC(=O)O)CCN(CC(=O)O)CC1` [M2, DOTA-DGlu-Pro-Tyr-Gly-Trp-(N-Me)Nle-Asp] ({DOTA}-[dE]PYGW[NMeNle]D-OH; C-terminus assumed): the IC50 on human CCK2R was over 1000 nM.

Compound `CCCC[C@@H](C(=O)O)N(C)C(=O)[C@H](Cc1c[nH]c2ccccc12)NC(=O)CNC(=O)[C@H](Cc1ccc(O)cc1)NC(=O)[C@@H]1CCCN1C(=O)[C@@H](CCC(=O)O)NC(=O)CN1CCN(CC(=O)O)CCN(CC(=O)O)CCN(CC(=O)O)CC1` [M3, DOTA-DGlu-Pro-Tyr-Gly-Trp-(N-Me)Nle] ({DOTA}-[dE]PYGW[NMeNle]-OH; C-terminus assumed) showed an IC50 on human CCK2R of over 1000 nM.

For `O=C(O)CC[C@@H](NC(=O)CN1CCN(CC(=O)O)CCN(CC(=O)O)CCN(CC(=O)O)CC1)C(=O)N1CCC[C@H]1C(=O)N[C@@H](Cc1ccc(O)cc1)C(=O)NCC(=O)N[C@@H](Cc1c[nH]c2ccccc12)C(=O)O` [M4, DOTA-DGlu-Pro-Tyr-Gly-Trp] ({DOTA}-[dE]PYGW-OH; C-terminus assumed), the IC50 at human CCK2R is over 1000 nM.

Regarding `CCCC[C@@H](C(=O)N[C@@H](CC(=O)O)C(=O)N[C@@H](Cc1cccc2ccccc12)C(=O)O)N(C)C(=O)[C@H](Cc1c[nH]c2ccccc12)NC(=O)CNC(=O)[C@H](Cc1ccc(O)cc1)NC(=O)[C@@H]1CCCN1C(=O)[C@@H](CCC(=O)O)NC(=O)CN1CCN(CC(=O)O)CCN(CC(=O)O)CCN(CC(=O)O)CC1` [[^177Lu]Lu-M1, metal not drawn] ({DOTA}-[dE]PYGW[NMeNle]D[1Nal]-OH), the fraction unbound in data set [1] was 0.546. Further, the “percentage of intact radiopeptide / radiometabolite” value stood at 9.9% in data set [2] (blood, 30 min p.i., mice injected i.v. with [177Lu]Lu-1); 5.8% in data set [2] (blood, 60 min p.i., mice injected i.v. with [177Lu]Lu-1); 2.5% in data set [2] (kidney, 30 min p.i.); 4.8% in data set [2] (liver, 30 min p.i.); 4.6% in data set [2] (liver, 60 min p.i.); 1.4% in data set [2] (urine, 30 min p.i.). In data set [2] (blood, different time points up to 1 h p.i.), the amount of radiometabolite was under 10%. Further, the intact radiopeptide is 89.1 ± 1.3% in data set [3] and 89% in data set [3] (listed as radiolabeled M1). The logD in data set [4] (octanol/PBS pH 7.4, read-out: logD) is -4.07 ± 0.35.

For the compound `O=C(O)CC[C@@H](NC(=O)CN1CCN(CC(=O)O)CCN(CC(=O)O)CCN(CC(=O)O)CC1)C(=O)N1CCC[C@H]1C(=O)N[C@@H](Cc1ccc(O)cc1)C(=O)NCC(=O)N[C@@H](Cc1c[nH]c2ccccc12)C(=O)O` [[^177Lu]Lu-M4, metal not drawn] ({DOTA}-[dE]PYGW-OH; C-terminus assumed), the amount of radiometabolite in data set [2] (mouse, in vivo) is listed as under 3%. In data set [4] (pH 7.4), the logD is -4.19 ± 0.3.

With `O=C(O)CC[C@@H](NC(=O)CN1CCN(CC(=O)O)CCN(CC(=O)O)CCN(CC(=O)O)CC1)C(=O)N1CCC[C@H]1C(=O)N[C@@H](Cc1ccc(O)cc1)C(=O)NCC(=O)O` [[^177Lu]Lu-M5, metal not drawn] ({DOTA}-[dE]PYG-OH; C-terminus assumed), the amount of radiometabolite in data set [2] (mouse, in vivo) is under 10%.

Consider `O=C(O)CC[C@@H](NC(=O)CN1CCN(CC(=O)O)CCN(CC(=O)O)CCN(CC(=O)O)CC1)C(=O)N1CCC[C@H]1C(=O)N[C@@H](Cc1ccc(O)cc1)C(=O)O` [[^177Lu]Lu-M6, metal not drawn] ({DOTA}-[dE]-Pro-Tyr-OH; C-terminus assumed), for which, in data set [2] (mouse, in vivo), the amount of radiometabolite is on record as ~ 20%.

As for `CCCC[C@@H](C(=O)N[C@@H](CC(=O)O)C(=O)N[C@@H](Cc1cccc2ccccc12)C(N)=O)N(C)C(=O)[C@H](Cc1c[nH]c2ccccc12)NC(=O)CNC(=O)[C@H](Cc1ccc(O)cc1)NC(=O)[C@@H]1CCCN1C(=O)[C@@H](CCC(=O)O)NC(=O)CN1CCN(CC(=O)O)CCN(CC(=O)O)CCN(CC(=O)O)CC1` [compound 1, DOTA-DGlu-Pro-Tyr-Gly-Trp-(N-Me)Nle-Asp-1Nal-NH2] ({DOTA}-[dE]PYGW[NMeNle]D[1Nal]-NH2), the IC50 at human CCK2R was 0.69 ± 0.09 nM.

The values above are taken from article PMC7583830 (Molecules, 2020).
